Experiment [1] concerns GM1 production in Jurkat cells. Kind of experiment: cells. It is filed as cell-based. The settings on record: Homo sapiens, Jurkat, 72 h.
For experiment [2], the target named is T1, glucosylceramide synthase (GCS) (Homo sapiens, UniProt Q16739).
T1 construct: The obtained supernatant was used; host or cells: A549 cells (lysate supernatant after sonication)
T1 sequence (Q16739 1-394): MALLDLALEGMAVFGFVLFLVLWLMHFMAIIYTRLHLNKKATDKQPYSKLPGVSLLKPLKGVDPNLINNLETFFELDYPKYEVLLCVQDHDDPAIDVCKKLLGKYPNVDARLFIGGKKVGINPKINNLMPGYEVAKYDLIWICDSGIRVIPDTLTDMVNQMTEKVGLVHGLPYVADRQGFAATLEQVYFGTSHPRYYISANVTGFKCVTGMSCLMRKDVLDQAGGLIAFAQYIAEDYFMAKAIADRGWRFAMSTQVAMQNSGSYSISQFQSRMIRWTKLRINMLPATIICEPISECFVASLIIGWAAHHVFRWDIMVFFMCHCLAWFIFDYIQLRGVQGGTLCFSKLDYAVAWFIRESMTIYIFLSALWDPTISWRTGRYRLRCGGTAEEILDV
As to the kind of experiment: GCS enzyme inhibition assay (A549 cell lysate, NBD C6-ceramide, HPLC fluorescence). The class given is biochemical. The conditions noted are these: inhibitory activity against GCS, 37° C., 90 minutes. The method in brief:
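A549 cell lysate (50 mM HEPES pH 7.3) served as GCS source; reactions ran 90 min at 37° C, were stopped with chloroform/methanol and lipids extracted. Activity taken as GlcCer/(Cer+GlcCer) peak area, normalised between DMSO and ibiglustat controls.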

The structures appear in SMILES notation.

As usually defined, the IC50 is the concentration at which inhibition is half-maximal. In the case of `CC1(C)COc2cc(/C=C/c3ccsc3)ccc2C1NC(=O)O[C@@H]1CN2CCC1CC2` (stereo partly drawn) [Example 271, (S)-quinuclidin-3-yl (3,3-dimethyl-7-((E)-2-(thiophen-3-yl)vinyl)chroman-4-yl)carbamate], the half-inhibitory concentration (IC50) in experiment [1] is 9 nM; in experiment [2], 1.26 nM.

As for `C=Cc1ccc(-c2ccc3c(c2)OCC(C)(C)C3NC(=O)O[C@@H]2CN3CCC2CC3)cc1` (stereo partly drawn) [Example 272, (S)-quinuclidin-3-yl (3,3-dimethyl-7-(4-vinylphenyl)chroman-4-yl)carbamate], the IC50 was determined as 4.4 nM in experiment [1] and 0.89 nM in experiment [2].

As to `CCc1ccc(-c2ccc3c(c2)OCC(C)(C)C3NC(=O)O[C@@H]2CN3CCC2CC3)cc1` (stereo partly drawn) [Example 273, (S)-quinuclidin-3-yl (7-(4-ethylphenyl)-3,3-dimethylchroman-4-yl)carbamate], the values for the half-inhibitory concentration (IC50) in experiment [1] and in experiment [2] were 2.9 nM and 0.46 nM, respectively.

With `C=Cc1ccccc1-c1ccc2c(c1)OCC(C)(C)C2NC(=O)O[C@@H]1CN2CCC1CC2` (stereo partly drawn) [Example 274, (S)-quinuclidin-3-yl (3,3-dimethyl-7-(2-vinylphenyl)chroman-4-yl)carbamate], the IC50 in experiment [1] stood at 1.7 nM; in experiment [2] it was 0.58 nM.

As to `CCOc1ccc(-c2ccc3c(c2)OCC(C)(C)C3NC(=O)O[C@@H]2CN3CCC2CC3)c(C)c1` (stereo partly drawn) [Example 275, (S)-quinuclidin-3-yl (7-(4-ethoxy-2-methylphenyl)-3,3-dimethylchroman-4-yl)carbamate], the IC50 in experiment [1] came out at 2.6 nM; in experiment [2], 0.84 nM.

On to `CC1(C)COc2cc(-c3ccc(OCc4ccccc4)cc3)ccc2C1NC(=O)O[C@@H]1CN2CCC1CC2` (stereo partly drawn) [Example 276, (S)-quinuclidin-3-yl (7-(4-(benzyloxy)phenyl)-3,3-dimethylchroman-4-yl)carbamate], for which the 50% inhibitory concentration (IC50) was 1.3 nM in experiment [1] and 0.54 nM in experiment [2].

For the molecule `CC1(C)COc2cc(-c3cccc(OCc4ccccc4)c3)ccc2C1NC(=O)O[C@@H]1CN2CCC1CC2` (stereo partly drawn) [Example 277, (S)-quinuclidin-3-yl (7-(3-(benzyloxy)phenyl)-3,3-dimethylchroman-4-yl)carbamate], the values for the half-maximal inhibitory concentration (IC50) in experiment [1] and in experiment [2] were 0.9 nM and 0.65 nM, respectively.

With `CC1(C)COc2cc(-c3ccc(F)nc3F)ccc2C1NC(=O)O[C@@H]1CN2CCC1CC2` (stereo partly drawn) [Example 278, (S)-quinuclidin-3-yl (7-(2,6-difluoropyridin-3-yl)-3,3-dimethylchroman-4-yl)carbamate], the values for the IC50 in experiment [1] and in experiment [2] were 12.4 nM and 2.19 nM, respectively.

Consider `C=CCc1ccccc1-c1ccc2c(c1)OCC(C)(C)C2NC(=O)O[C@@H]1CN2CCC1CC2` (stereo partly drawn) [Example 279, (S)-quinuclidin-3-yl (7-(2-allylphenyl)-3,3-dimethylchroman-4-yl)carbamate], for which the values for the 50% inhibitory concentration (IC50) in experiment [1] and in experiment [2] were 6.2 nM and 0.73 nM, respectively.

`CC1(C)COc2cc(-c3ccc(CC#N)cc3)ccc2C1NC(=O)O[C@@H]1CN2CCC1CC2` (stereo partly drawn) [Example 280, (S)-quinuclidin-3-yl (7-(4-(cyanomethyl)phenyl)-3,3-dimethylchroman-4-yl)carbamate]: the IC50 in experiment [1] was determined as 9.3 nM; in experiment [2], 0.62 nM.

In the case of `CC1(C)COc2cc(-c3cccc(CC#N)c3)ccc2C1NC(=O)O[C@@H]1CN2CCC1CC2` (stereo partly drawn) [Example 281, (S)-quinuclidin-3-yl (7-(3-(cyanomethyl)phenyl)-3,3-dimethylchroman-4-yl)carbamate], the 50% inhibitory concentration (IC50) was found to be 6.9 nM in experiment [1] and 0.65 nM in experiment [2].

Regarding `CC1(C)COc2cc(/C=C/c3ccc(-c4ccccc4)cc3)ccc2C1NC(=O)O[C@@H]1CN2CCC1CC2` (stereo partly drawn) [Example 282, (S)-quinuclidin-3-yl (7-((E)-2-([1,1′-diphenyl]-4-yl)vinyl)-3,3-dimethylchroman-4-yl)carbamate], the IC50 was determined as 2 nM in experiment [1] and 1.64 nM in experiment [2].

Take `CC1(C)COc2cc(-c3cnc(C4CC4)nc3)ccc2C1NC(=O)O[C@@H]1CN2CCC1CC2` (stereo partly drawn) [Example 283, (S)-quinuclidin-3-yl (7-(2-cyclopropylpyrimidin-5-yl)-3,3-dimethylchroman-4-yl)carbamate]: the IC50 in experiment [1] worked out at 25.6 nM; in experiment [2] it was 2.2 nM.

In the case of `CC1(C)COc2cc(/C=C/c3ccc(C(F)(F)F)cc3)ccc2C1NC(=O)O[C@@H]1CN2CCC1CC2` (stereo partly drawn) [Example 284, (S)-quinuclidin-3-yl (3,3-dimethyl-7-((E)-4-(trifluoromethyl)styryl)chroman-4-yl)carbamate], the IC50 was 0.5 nM in experiment [1] and 0.91 nM in experiment [2].

On to `Cc1cc(C)c(Cl)c(-c2ccc3c(c2)OCC(C)(C)C3NC(=O)O[C@@H]2CN3CCC2CC3)c1` (stereo partly drawn) [Example 285, (S)-quinuclidin-3-yl (7-(2-chloro-3,5-dimethylphenyl)-3,3-dimethylchroman-4-yl)carbamate], for which the half-inhibitory concentration (IC50) in experiment [1] turned out to be 9.7 nM; in experiment [2], 1.96 nM.

Take `CC1(C)COc2cc(/C=C/c3ccc(F)cc3F)ccc2C1NC(=O)O[C@@H]1CN2CCC1CC2` (stereo partly drawn) [Example 286, (S)-quinuclidin-3-yl (7-((E)-2,4-difluorostyryl)-3,3-dimethylchroman-4-yl)carbamate]: the IC50 in experiment [1] is 3.3 nM; in experiment [2], 0.93 nM.

As for `CCc1ccc(/C=C/c2ccc3c(c2)OCC(C)(C)C3NC(=O)O[C@@H]2CN3CCC2CC3)cc1` (stereo partly drawn) [Example 287, (S)-quinuclidin-3-yl (7-((E)-4-ethylstyryl)-3,3-dimethylchroman-4-yl)carbamate], the IC50 in experiment [1] came to 1 nM; in experiment [2], 0.79 nM.

On to `CCOc1ccc2cc(-c3ccc4c(c3)OCC(C)(C)C4NC(=O)O[C@@H]3CN4CCC3CC4)ccc2c1` (stereo partly drawn) [Example 288, (S)-quinuclidin-3-yl (7-(6-ethoxynaphthalen-2-yl)-3,3-dimethylchroman-4-yl)carbamate], for which the values for the concentration for half-maximal inhibition (IC50) in experiment [1] and in experiment [2] were 0.7 nM and 1.11 nM, respectively.

With `CC1(C)COc2cc(/C=C/c3cccc(F)c3)ccc2C1NC(=O)O[C@@H]1CN2CCC1CC2` (stereo partly drawn) [Example 289, (S)-quinuclidin-3-yl (7-((E)-3-fluorostyryl)-3,3-dimethylchroman-4-yl)carbamate], the figures for the concentration for half-maximal inhibition (IC50) in experiment [1] and in experiment [2] were 1.4 nM and 0.61 nM, respectively.

As for `CC1(C)COc2cc(-c3cccc4c3oc3ccccc34)ccc2C1NC(=O)O[C@@H]1CN2CCC1CC2` (stereo partly drawn) [Example 290, (S)-quinuclidin-3-yl (7-(dibenzo[b,d]furan-4-yl)-3,3-dimethylchroman-4-yl)carbamate], the IC50 turned out to be 0.9 nM in experiment [1] and 1.54 nM in experiment [2].

For `CC1(C)COc2cc(-c3ccc(C#N)c(F)c3)ccc2C1NC(=O)O[C@@H]1CN2CCC1CC2` (stereo partly drawn) [Example 291, (S)-quinuclidin-3-yl (7-(4-cyano-3-fluorophenyl)-3,3-dimethylchroman-4-yl)carbamate], the IC50 in experiment [1] worked out at 8.9 nM; in experiment [2], 1.03 nM.

With `CC1(C)COc2cc(-c3ccc(=O)n(Cc4ccccc4)c3)ccc2C1NC(=O)O[C@@H]1CN2CCC1CC2` (stereo partly drawn) [Example 292, (S)-quinuclidin-3-yl (7-(1-benzyl-6-oxo-1,6-dihydropyridin-3-yl)-3,3-dimethylchroman-4-yl)carbamate], the IC50 in experiment [1] is 30.2 nM; in experiment [2], 1.38 nM.

With `CC1(C)COc2cc(/C=C/c3ccc(F)cc3)ccc2C1NC(=O)O[C@@H]1CN2CCC1CC2` (stereo partly drawn) [Example 293, (S)-quinuclidin-3-yl (7-((E)-4-fluorostyryl)-3,3-dimethylchroman-4-yl)carbamate], the results for the concentration for half-maximal inhibition (IC50) in experiment [1] and in experiment [2] were 3 nM and 1.23 nM, respectively.

In the case of `CC1(C)CC(NC(=O)O[C@@H]2CN3CCC2CC3)c2ccc(-c3cccc(C(F)(F)F)c3)cc2O1` (stereo partly drawn) [Example 295, (S)-quinuclidin-3-yl (2,2-dimethyl-7-(3-(trifluoromethyl)phenyl)chroman-4-yl)carbamate], the 50% inhibitory concentration (IC50) was determined as 11.2 nM in experiment [1] and 18.1 nM in experiment [2].

In the case of `CC1(C)CC(NC(=O)O[C@@H]2CN3CCC2CC3)c2ccc(-c3cccc(OC(F)(F)F)c3)cc2O1` (stereo partly drawn) [Example 296, (S)-quinuclidin-3-yl (2,2-dimethyl-7-(3-(trifluoromethoxy)phenyl)chroman-4-yl)carbamate], the IC50 was 1.26 nM in experiment [1] and 11.4 nM in experiment [2].

As for `CC1(NC(=O)O[C@@H]2CN3CCC2CC3)CCOc2cc(-c3cccc(Cl)c3)ccc21` (stereo partly drawn) [Example 297, (S)-quinuclidin-3-yl (7-(3-chlorophenyl)-4-methylchroman-4-yl)carbamate], the half-inhibitory concentration (IC50) in experiment [1] worked out at 5.6 nM; in experiment [2], 0.8 nM.

Consider `CC1(NC(=O)O[C@@H]2CN3CCC2CC3)CCOc2cc(-c3cccc(F)c3)ccc21` (stereo partly drawn) [Example 298, (S)-quinuclidin-3-yl (7-(3-fluorophenyl)-4-methylchroman-4-yl)carbamate], for which the IC50 in experiment [1] was 5.5 nM; in experiment [2], 0.7 nM.

On to `COc1cccc(-c2ccc3c(c2)OCCC3(C)NC(=O)O[C@@H]2CN3CCC2CC3)c1` (stereo partly drawn) [Example 299, (S)-quinuclidin-3-yl (7-(3-methoxyphenyl)-4-methylchroman-4-yl)carbamate], for which the IC50 worked out at 9.7 nM in experiment [1] and 0.6 nM in experiment [2].

`CC(C)c1cccc(-c2ccc3c(c2)OCCC3(C)NC(=O)O[C@@H]2CN3CCC2CC3)c1` (stereo partly drawn) [Example 300, (S)-quinuclidin-3-yl (7-(3-isopropylphenyl)-4-methylchroman-4-yl)carbamate]: the half-inhibitory concentration (IC50) amounted to 0.9 nM in experiment [1] and 0.23 nM in experiment [2].

The values are drawn from US12673944B2, “Compounds having inhibitory activity against glucosylceramide synthase or pharmaceutically acceptable salt thereof, processes for preparing the same, and pharmaceutical compositions comprising the same” (YUHAN CORPORATION, priority 2019, dated 2026).
